Assay results published in ChEMBL document CHEMBL5126509, “Dual target inhibitors based on EGFR: Promising anticancer agents for the treatment of cancers (2017-)” (Eur J Med Chem, 2022).
Values belong to the compound of their own block, whether it stands above or below them.

Key:
[1] = target: Fibroblast growth factor receptor 1 (Homo sapiens, UniProt P11362); assay: Inhibition of N-terminal GST-tagged recombinant wild type human FGFR1 (398 to 822 residues) expressed in baculovirus infected Sf21 cells incubated for 1 hr in presence of ATP by caliper mobility shift assay
NCI-H1975 [2] = assay: Antiproliferative activity against human NCI-H1975 cells assessed as cell growth inhibition incubated for 72 hrs by MTS assay; assay type: functional, cell-based; conditions: NCI-H1975, 72 h
[3] = target: T1, Epidermal growth factor receptor (Homo sapiens, UniProt P00533); assay: Inhibition of human EGFR expressed in baculovirus expression system using CAGAGAIETDKEYYTVKD as substrate preincubated for 10 mins followed by substrate and ATP addition measured after 1 hr by TR-FRET assay
T1 sequence (P00533 whole entry): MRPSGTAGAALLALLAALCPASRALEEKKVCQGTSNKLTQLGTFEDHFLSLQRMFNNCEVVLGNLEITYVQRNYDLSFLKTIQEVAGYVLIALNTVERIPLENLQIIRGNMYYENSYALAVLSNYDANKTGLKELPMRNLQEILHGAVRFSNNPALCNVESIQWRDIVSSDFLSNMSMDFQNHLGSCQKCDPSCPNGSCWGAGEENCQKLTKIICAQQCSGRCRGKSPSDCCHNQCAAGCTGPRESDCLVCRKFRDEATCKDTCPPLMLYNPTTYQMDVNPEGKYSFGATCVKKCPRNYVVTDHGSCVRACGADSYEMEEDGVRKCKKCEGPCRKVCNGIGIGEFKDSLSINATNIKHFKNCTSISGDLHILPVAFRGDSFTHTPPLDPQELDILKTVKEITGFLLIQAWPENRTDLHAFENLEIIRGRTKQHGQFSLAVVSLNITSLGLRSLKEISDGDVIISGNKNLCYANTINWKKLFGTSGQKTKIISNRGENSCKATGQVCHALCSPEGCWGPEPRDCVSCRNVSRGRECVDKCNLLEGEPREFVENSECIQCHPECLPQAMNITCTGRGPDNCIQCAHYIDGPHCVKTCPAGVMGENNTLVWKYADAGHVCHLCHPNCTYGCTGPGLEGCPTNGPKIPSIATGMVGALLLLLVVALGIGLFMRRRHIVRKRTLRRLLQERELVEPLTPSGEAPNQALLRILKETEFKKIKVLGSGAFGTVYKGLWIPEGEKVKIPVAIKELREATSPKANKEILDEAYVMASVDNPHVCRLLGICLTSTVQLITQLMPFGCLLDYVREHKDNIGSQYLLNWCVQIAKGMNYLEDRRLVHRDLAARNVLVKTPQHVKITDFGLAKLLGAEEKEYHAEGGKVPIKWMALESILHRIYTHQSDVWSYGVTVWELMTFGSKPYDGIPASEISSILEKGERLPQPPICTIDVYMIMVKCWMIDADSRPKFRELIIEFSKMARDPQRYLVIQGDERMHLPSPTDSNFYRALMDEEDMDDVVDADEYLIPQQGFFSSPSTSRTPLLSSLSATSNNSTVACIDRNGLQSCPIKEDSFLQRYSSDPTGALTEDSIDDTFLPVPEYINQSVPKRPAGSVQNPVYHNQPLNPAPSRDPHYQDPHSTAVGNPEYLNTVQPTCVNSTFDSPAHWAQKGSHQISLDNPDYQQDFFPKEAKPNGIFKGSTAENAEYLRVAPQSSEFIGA

[4] = target: T2, Epidermal growth factor receptor (Homo sapiens, UniProt P00533, T790M); assay: Inhibition of human EGFR T790M mutant expressed in baculovirus expression system using CAGAGAIETDKEYYTVKD as substrate preincubated for 10 mins followed by substrate and ATP addition measured after 1 hr by TR-FRET assay
T2 sequence (P00533 25-1210 T790M limits assumed): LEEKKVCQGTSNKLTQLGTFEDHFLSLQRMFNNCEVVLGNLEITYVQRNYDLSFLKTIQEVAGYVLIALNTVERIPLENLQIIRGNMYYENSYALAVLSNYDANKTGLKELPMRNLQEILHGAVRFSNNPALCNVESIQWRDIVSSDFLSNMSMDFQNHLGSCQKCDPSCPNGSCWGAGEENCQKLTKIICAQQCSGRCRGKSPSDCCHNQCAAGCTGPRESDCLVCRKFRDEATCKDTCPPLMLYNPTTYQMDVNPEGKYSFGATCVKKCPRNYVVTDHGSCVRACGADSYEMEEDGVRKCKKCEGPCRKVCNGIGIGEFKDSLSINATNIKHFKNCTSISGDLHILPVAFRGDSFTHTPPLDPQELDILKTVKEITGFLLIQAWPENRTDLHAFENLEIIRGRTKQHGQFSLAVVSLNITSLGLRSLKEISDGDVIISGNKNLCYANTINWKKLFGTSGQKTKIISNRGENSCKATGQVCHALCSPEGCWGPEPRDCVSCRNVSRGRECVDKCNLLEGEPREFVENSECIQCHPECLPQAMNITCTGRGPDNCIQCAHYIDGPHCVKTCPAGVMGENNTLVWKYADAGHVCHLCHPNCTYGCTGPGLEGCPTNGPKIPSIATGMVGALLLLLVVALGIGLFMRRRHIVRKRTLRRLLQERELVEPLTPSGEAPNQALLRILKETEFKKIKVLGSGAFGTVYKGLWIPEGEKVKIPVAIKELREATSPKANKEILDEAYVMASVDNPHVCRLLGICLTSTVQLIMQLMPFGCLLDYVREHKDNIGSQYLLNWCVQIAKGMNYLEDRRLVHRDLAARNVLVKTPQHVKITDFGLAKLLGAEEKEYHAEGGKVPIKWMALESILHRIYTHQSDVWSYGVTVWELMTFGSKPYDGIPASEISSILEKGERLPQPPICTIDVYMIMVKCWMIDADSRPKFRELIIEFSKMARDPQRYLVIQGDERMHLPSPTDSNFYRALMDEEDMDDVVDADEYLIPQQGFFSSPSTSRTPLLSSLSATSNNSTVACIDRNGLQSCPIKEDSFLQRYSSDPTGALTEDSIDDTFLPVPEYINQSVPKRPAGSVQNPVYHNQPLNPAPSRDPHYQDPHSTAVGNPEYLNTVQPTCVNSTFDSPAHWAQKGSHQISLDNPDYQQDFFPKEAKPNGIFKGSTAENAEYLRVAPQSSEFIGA

[5] = target: T2, Epidermal growth factor receptor; assay: Inhibition of EGFR T790M mutant (unknown origin) incubated for 1 hr by Z-lyte kinase assay
[6] = target: Hepatocyte growth factor receptor (Homo sapiens, UniProt P08581); assay: Inhibition of c-MET (unknown origin) incubated for 1 hr by Z-lyte kinase assay
Chain of Hepatocyte growth factor receptor (P08581 whole entry): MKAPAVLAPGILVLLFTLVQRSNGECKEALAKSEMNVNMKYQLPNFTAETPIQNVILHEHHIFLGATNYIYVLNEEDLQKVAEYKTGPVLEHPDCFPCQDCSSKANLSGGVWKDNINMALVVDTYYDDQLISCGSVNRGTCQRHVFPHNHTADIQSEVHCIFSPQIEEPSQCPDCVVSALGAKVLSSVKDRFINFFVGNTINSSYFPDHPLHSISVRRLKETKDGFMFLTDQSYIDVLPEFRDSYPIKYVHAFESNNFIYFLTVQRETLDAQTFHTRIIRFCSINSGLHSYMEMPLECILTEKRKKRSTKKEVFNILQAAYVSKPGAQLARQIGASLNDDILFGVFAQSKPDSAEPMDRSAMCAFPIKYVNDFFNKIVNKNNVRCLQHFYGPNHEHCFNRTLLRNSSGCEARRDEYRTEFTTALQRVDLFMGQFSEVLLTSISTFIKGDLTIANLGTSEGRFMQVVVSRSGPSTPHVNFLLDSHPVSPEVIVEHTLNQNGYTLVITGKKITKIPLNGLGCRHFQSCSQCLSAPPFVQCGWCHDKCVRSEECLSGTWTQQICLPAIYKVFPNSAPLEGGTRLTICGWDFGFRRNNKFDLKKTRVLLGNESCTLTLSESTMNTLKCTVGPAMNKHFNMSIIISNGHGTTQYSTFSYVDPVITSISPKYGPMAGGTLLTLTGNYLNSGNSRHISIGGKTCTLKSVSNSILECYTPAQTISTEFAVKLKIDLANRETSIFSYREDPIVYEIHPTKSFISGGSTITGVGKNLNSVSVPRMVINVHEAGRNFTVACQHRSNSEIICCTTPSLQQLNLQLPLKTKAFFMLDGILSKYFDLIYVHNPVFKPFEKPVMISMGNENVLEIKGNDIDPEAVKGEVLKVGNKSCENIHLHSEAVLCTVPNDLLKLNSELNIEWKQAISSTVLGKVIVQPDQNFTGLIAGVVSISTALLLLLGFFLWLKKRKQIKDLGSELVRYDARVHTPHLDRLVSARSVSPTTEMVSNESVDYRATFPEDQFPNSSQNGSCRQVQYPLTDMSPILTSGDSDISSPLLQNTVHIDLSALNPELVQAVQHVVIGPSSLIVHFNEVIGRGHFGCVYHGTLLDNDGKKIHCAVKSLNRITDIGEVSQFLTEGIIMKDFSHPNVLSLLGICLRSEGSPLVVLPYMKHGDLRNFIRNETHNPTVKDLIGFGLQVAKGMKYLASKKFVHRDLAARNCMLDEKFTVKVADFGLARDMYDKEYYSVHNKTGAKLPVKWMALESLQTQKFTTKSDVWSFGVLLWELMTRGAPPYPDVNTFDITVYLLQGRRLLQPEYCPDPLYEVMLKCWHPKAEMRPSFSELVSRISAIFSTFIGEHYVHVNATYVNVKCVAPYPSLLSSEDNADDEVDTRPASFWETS

Tubulin = assay: Inhibition of tubulin polymerization in human HCT-116 cells incubated for 18 to 24 hrs by horseradish peroxidase based ELISA method; assay type: cell-based
MCF7 [7] = assay: Antiproliferative activity against human MCF7 assessed as cell growth inhibition measured after 72 hrs by MTT assay; assay type: functional, cell-based; conditions: MCF7, 72 h
HCT-116 [8] = assay: Antiproliferative activity against human HCT-116 assessed as cell growth inhibition measured after 72 hrs by MTT assay; assay type: functional, cell-based; conditions: HCT-116, 72 h
[9] = target: T1, Epidermal growth factor receptor; assay: Inhibition of EGFR (unknown origin)
[10] = target: T3, Vascular endothelial growth factor receptor 2 (Homo sapiens, UniProt P35968); assay: Inhibition of VEGFR2 (unknown origin)
T3 sequence (P35968 whole entry): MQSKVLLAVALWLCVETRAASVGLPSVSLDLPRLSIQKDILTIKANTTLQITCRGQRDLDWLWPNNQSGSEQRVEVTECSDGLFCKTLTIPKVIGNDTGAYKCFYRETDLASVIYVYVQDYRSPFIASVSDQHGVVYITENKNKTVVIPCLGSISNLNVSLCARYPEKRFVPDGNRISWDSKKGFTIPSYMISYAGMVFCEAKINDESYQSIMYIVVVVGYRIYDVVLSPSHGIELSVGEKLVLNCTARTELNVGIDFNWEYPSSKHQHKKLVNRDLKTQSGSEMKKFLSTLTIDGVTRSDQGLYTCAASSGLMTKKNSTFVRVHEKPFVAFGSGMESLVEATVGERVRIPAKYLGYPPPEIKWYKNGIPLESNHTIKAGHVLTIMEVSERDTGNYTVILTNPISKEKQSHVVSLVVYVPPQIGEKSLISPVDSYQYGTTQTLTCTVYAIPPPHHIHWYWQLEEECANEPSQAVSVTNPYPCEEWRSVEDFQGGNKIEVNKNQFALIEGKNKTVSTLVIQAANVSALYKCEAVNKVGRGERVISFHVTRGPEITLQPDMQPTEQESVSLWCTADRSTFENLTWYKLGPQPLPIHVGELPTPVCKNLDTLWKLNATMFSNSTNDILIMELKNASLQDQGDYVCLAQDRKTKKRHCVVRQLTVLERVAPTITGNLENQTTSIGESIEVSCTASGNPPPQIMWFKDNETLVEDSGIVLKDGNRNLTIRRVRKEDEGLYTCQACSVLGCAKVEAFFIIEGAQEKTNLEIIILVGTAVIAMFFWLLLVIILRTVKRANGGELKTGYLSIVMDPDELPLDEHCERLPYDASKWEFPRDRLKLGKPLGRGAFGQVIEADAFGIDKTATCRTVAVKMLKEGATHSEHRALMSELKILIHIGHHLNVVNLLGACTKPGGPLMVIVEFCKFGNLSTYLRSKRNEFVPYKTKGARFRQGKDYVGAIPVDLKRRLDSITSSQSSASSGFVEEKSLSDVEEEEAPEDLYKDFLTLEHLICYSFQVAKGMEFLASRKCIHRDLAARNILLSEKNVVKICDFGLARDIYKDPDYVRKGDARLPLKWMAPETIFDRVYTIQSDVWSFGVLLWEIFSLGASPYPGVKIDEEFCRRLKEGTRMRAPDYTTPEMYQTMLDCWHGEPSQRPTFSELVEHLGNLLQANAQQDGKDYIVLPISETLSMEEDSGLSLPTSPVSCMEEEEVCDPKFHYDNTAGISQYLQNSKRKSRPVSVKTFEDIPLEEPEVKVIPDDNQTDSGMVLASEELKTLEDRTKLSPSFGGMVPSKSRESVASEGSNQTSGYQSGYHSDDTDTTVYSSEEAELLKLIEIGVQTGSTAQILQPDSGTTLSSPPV

A-431 = assay: Antiproliferative activity against human A-431 cells assessed as cell growth inhibition; assay type: functional, cell-based
NCI-H1975 [11] = assay: Antiproliferative activity against human NCI-H1975 cells assessed as cell growth inhibition; assay type: functional, cell-based
[12] = target: T2, Epidermal growth factor receptor; assay: Inhibition of EGFR T790M mutant (unknown origin)
[13] = target: Epidermal growth factor receptor (Homo sapiens, UniProt P00533, L858R/T790M); assay: Inhibition of EGFR L858R/T790M mutant (unknown origin)
[14] = target: T1, Epidermal growth factor receptor; assay: Inhibition of EGFR (unknown origin) using FAM-labeled peptide as substrate incubated for 10 mins in presence of ATP by caliper mobility shift assay
[15] = target: T3, Vascular endothelial growth factor receptor 2; assay: Inhibition of VEGFR-2 (unknown origin) using FAM-labeled peptide as substrate incubated for 10 mins in presence of ATP by caliper mobility shift assay
HCT-116 [16] = assay: Antiproliferative activity against human HCT-116 cells assessed as cell growth inhibition incubated for 42 hrs by MTT assay; assay type: functional, cell-based; conditions: HCT-116, 42 h
MCF7 [17] = assay: Antiproliferative activity against human MCF7 cells assessed as cell growth inhibition incubated for 42 hrs by MTT assay; assay type: functional, cell-based; conditions: MCF7, 42 h
B16 = assay: Antiproliferative activity against mouse B16 cells assessed as cell growth inhibition incubated for 42 hrs by MTT assay; assay type: functional, cell-based; conditions: B16, 42 h
[18] = target: T1, Epidermal growth factor receptor; assay: Binding affinity to GST-tagged human recombinant EGFR expressed in baculovirus infected Sf9 insect cells assessed as inhibition constant using poly(Glu,Tyr) 4:1 as substrate incubated for 60 mins in presence of [gamma33P]ATP by microplate scintillation counter analysis
[19] = target: Platelet-derived growth factor receptor beta (Homo sapiens, UniProt P09619); assay: Binding affinity to GST-tagged human recombinant PDFGR beta expressed in baculovirus infected Sf9 insect cells assessed as inhibition constant using poly(Ala,Glu,Lys,Tyr) 6:2:5.1 as substrate incubated for 60 mins in presence of [gamma33P]ATP by microplate scintillation counter analysis
[20] = target: T1, Epidermal growth factor receptor; assay: Inhibition of EGFR (unknown origin) incubated for 30 mins in presence of ATP by fluorescence based analysis
Histone deacetylase = assay: Inhibition of HDAC in human HeLa cell nuclear extract using Boc-Lys (acetyl)-AMC as substrate preincubated for 5 mins followed by substrate addition measured after 30 mins by microplate reader analysis; assay type: cell-free
A549 = assay: Antiproliferative activity against human A549 cells assessed as cell growth inhibition measured after 72 hrs by MTT assay; assay type: functional, cell-based; conditions: A549, 72 h
HeLa = assay: Antiproliferative activity against human HeLa cells assessed as cell growth inhibition measured after 72 hrs by MTT assay; assay type: functional, cell-based
MDA-MB-231 = assay: Antiproliferative activity against human MDA-MB-231 cells assessed as cell growth inhibition measured after 72 hrs by MTT assay; assay type: functional, cell-based; conditions: MDA-MB-231, 72 h
MDA-MB-468 = assay: Antiproliferative activity against human MDA-MB-468 cells assessed as cell growth inhibition measured after 72 hrs by MTT assay; assay type: functional, cell-based; conditions: MDA-MB-468, 72 h
KG-1 = assay: Antiproliferative activity against human KG-1 cells assessed as cell growth inhibition measured after 72 hrs by MTT assay; assay type: functional, cell-based; conditions: KG-1, 72 h
[21] = target: Insulin-like growth factor 1 receptor (Homo sapiens, UniProt P08069); assay: Inhibition of IGF1R (unknown origin)
SK-BR-3 = assay: Antiproliferative activity against human SK-BR-3 cells assessed as cell growth inhibition; assay type: functional, cell-based
[22] = target: T1, Epidermal growth factor receptor; assay: Inhibition of EGFR (unknown origin) by ADP-Glo kinase assay
[23] = target: Tyrosine-protein kinase CSK (Homo sapiens, UniProt P41240); assay: Inhibition of CSK (unknown origin) by ADP-Glo kinase assay

- IC50 [1]: 17.6 nM
- IC50 (NCI-H1975 [2]): 336 nM
Compound: CN1CCN(c2ccc(Nc3ncc(Br)c(Nc4ccc5cn[nH]c5c4)n3)cc2)CC1

Compound: O=C(Cc1ccccc1)Nc1cccc(-c2nc3n(c2-c2ccnc(Nc4ccc(N5CCOCC5)cc4)n2)CCS3)c1
- IC50 [3]: 35.5 nM
- IC50 [4]: 66 nM

- IC50 [5]: 97 nM
- IC50 [6]: 518 nM
Compound: CCc1ccc(Cn2cc(-c3cc(-c4ccc(Br)cc4)nc(N)n3)c3ccccc32)cc1

- IC50 (Tubulin): 8840 nM
- IC50 (MCF7 [7]): 1650 nM
- IC50 (HCT-116 [8]): 3610 nM
Compound: CCc1nnc2c(Nc3ccc(C(=O)/C=C/c4cc(OC)c(OC)c(OC)c4)cc3)nc3ccccc3n12

- IC50 [9]: 2 nM
- IC50 [10]: 103 nM
- IC50 (A-431): 14 nM
- IC50 (NCI-H1975 [11]): 130 nM
- IC50 [12]: 11 nM
- IC50 [13]: 3 nM
Compound: C=CC(=O)Nc1cc2c(Nc3ccc(Br)cc3F)ncnc2cc1OCCNC(=O)CN(C)C

- IC50 [14]: 20 nM
- IC50 [15]: 50 nM
- IC50 (HCT-116 [16]): 5570 nM
- IC50 (MCF7 [17]): 5570 nM
- IC50 (B16): 5570 nM
Compound: COc1cc2ncnc(Oc3cccc(NC(=S)Nc4ccc(Cl)c(C(F)(F)F)c4)c3)c2cc1OC

- Ki [18]: 170 nM
- Ki [19]: 81 nM
Compound: Nc1nc(Nc2ccc(COc3cccc(F)c3)cc2)c2c(n1)[nH]c1ccc(O)cc12

- IC50 [20]: 186 nM
Compound: Cc1nn(-c2ccc(F)cc2)c2ncnc(Nc3ccc(F)c(Cl)c3)c12

- IC50 [5]: 94 nM
- IC50 [6]: 595 nM
Compound: CC(C)c1ccc(Cn2cc(-c3cc(-c4ccc(Br)cc4)nc(N)n3)c3ccccc32)cc1

- IC50 [5]: 195 nM
- IC50 [6]: 101 nM
Compound: Nc1nc(-c2ccc(Br)cc2)cc(-c2cn(Cc3cccc(Cl)c3)c3ccccc23)n1

- IC50 [14]: 10 nM
- IC50 [15]: 80 nM
- IC50 (HCT-116 [16]): 5570 nM
- IC50 (MCF7 [17]): 5570 nM
- IC50 (B16): 5570 nM
Compound: COc1cc2ncnc(Sc3cccc(NC(=S)Nc4ccc(Br)c(C(F)(F)F)c4)c3)c2cc1OC

- IC50 (A-431): 2150 nM
Compound: CCOc1cc2ncc(C#N)c(Nc3ccc(OCc4ccccn4)c(Cl)c3)c2cc1NC(=O)/C=C/CN(C)C [NERATINIB]

- IC50 (Histone deacetylase): 85 nM
- IC50 (A549): 2190 nM
- IC50 (HeLa): 1850 nM
- IC50 (MDA-MB-231): 600 nM
- IC50 (MDA-MB-468): 230 nM
Compound: COc1cc(NC(=O)CCCCCCC(=O)NO)ccc1Nc1nccc(-c2cn(C)c3ccccc23)n1
- IC50 (KG-1): 420 nM

- IC50 [9]: 597 nM
- IC50 (A-431): 1890 nM
- IC50 [21]: 908 nM
- IC50 (SK-BR-3): 1930 nM
Compound: CCOc1cc2ncc(C#N)c(Nc3ccc(OCc4ccccc4)cc3)c2cc1NC(=O)/C=C/c1cccnc1

- IC50 [22]: 11100 nM
- IC50 [23]: 5160 nM
Compound: COc1ccc(CCOc2ccc(C(=O)/C=C/c3ccc(O)c(O)c3)cc2OC)cc1OC
